Laboratory results as given in the NIST ThermoML archive (doi:10.1021/je049787p).

Conditions: 101.3 kPa, Liquid; for electrical conductivity: Alternating current cell with electrodes

C=CCn1cc[n+](C)c1.[Cl-] [1-allyl-3-methylimidazolium chloride]
Conditions	electrical conductivity [S/m]	viscosity [mPa·s]
293.15 K	0.00382	66
303.15 K	0.0044	44.7
313.15 K	0.00501	25.3
323.15 K	0.00562	20.6
333.15 K	0.00624	16.2
